Activity data for 12 molecules are collected here from patent US20240261249A1, “NOVEL SQUARAMIDE DERIVATIVE AND USE THEREOF” (PUSAN NATIONAL UNIVERSITY INDUSTRY-UNIVERSITY COOPERATION …, priority 2021, published 2024).

Structures are written as SMILES.

For the assay, the system named is Phospho-eIF2α (Ser51). The assay can be described thus: Phospho-eIF2α (Ser51) Sandwich ELISA in K562 cells. Type of assay: cell-based. As to conditions: Homo sapiens, K562, 6 h, serum-free RPMI, 10 μM compound, control = 1, read-out: eIF2α phosphorylation, absorbance standardized to control (DMSO-treated) set to 1, at 10 μM. The method, then:
Pathscan Phospho-eIF2α (Ser51) Sandwich ELISA Kit #7286 from Cell signaling was used. The K562 cell line was cultured in serum-free RPMI medium at 37° C. in the presence of 5% CO2. Cells were treated with test compounds at a concentration of 10 μM. Six hours after compound treatment, the cells were lysed with a lysis buffer included in the kit to obtain 50 μg of protein by quantification. Afterwards, ELISA assay was performed according to the manufacturer's protocol to obtain absorbance. The absorbance for each obtained compound was standardized to a value of which the control (DMSO-treated) is set to 1.
A general note: An ELISA detects its analyte on a solid surface through an enzyme-linked reagent.
Regarding `CC(C)(C)c1ccc(Nc2c(N[C@H]3CC[C@H](Oc4ccc(C#N)cc4)CC3)c(=O)c2=O)cc1` [Compound 51, 4-(((1,4-trans)-4-((2-((4-(tert-Butyl)phenyl)amino)-3,4-dioxocyclobut-1-en-1-yl)amino)cyclohexyl)oxy)benzonitrile], the activity at 10 µM worked out at 182%.
Take `CC(C)(C)c1ccc(Nc2c(N[C@H]3CC[C@H](Oc4ccc([N+](=O)[O-])cc4)CC3)c(=O)c2=O)cc1` [Compound 52, 3-((4-(tert-Butyl)phenyl)amino)-4-(((1,4-trans)-4-(4-nitrophenoxy)cyclohexyl)amino)cyclobut-3-ene-1,2-dione]: the activity at 10 µM turned out to be 77%.
Take `CC(C)(C)c1ccc(Nc2c(N[C@H]3CC[C@H](Oc4ccc(S(C)(=O)=O)cc4)CC3)c(=O)c2=O)cc1` [Compound 53, 3-((4-(tert-Butyl)phenyl)amino)-4-(((1,4-trans)-4-(4-(methylsulfonyl)phenoxy)cyclohexyl)amino)cyclobut-3-ene-1,2-dione]: the activity at 10 µM turned out to be 133%.
`COc1ccc(Nc2c(N[C@H]3CC[C@H](Oc4ccc(C(F)(F)F)cc4)CC3)c(=O)c2=O)cc1` [Compound 54, 3-((4-Methoxyphenyl)amino)-4-(((1,4-trans)-4-(4-(trifluoromethyl)phenoxy)cyclohexyl)amino)cyclobut-3-ene-1,2-dione]: the activity at 10 µM was 182%.
For the molecule `COc1ccc(Nc2c(N[C@H]3CC[C@H](Oc4ccc(C#N)cc4)CC3)c(=O)c2=O)cc1` [Compound 55, 4-(((1,4-trans)-4-((2-((4-Methoxyphenyl)amino)-3,4-dioxocyclobut-1-en-1-yl)amino)cyclohexyl)oxy)benzonitrile], the activity at 10 µM was determined as 84%.
In the case of `COc1ccc(Nc2c(N[C@H]3CC[C@H](Oc4ccc([N+](=O)[O-])cc4)CC3)c(=O)c2=O)cc1` [Compound 56, 3-((4-Methoxyphenyl)amino)-4-(((1,4-trans)-4-(4-nitrophenoxy)cyclohexyl)amino)cyclobut-3-ene-1,2-dione], the activity at 10 µM was determined as 227%.
On to `COc1ccc(Nc2c(N[C@H]3CC[C@H](Oc4ccc(S(C)(=O)=O)cc4)CC3)c(=O)c2=O)cc1` [Compound 57, 3-((4-Methoxyphenyl)amino)-4-(((1,4-trans)-4-(4-(methylsulfonyl)phenoxy)cyclohexyl)amino)cyclobut-3-ene-1,2-dione], for which the activity at 10 µM stood at 211%.
As for `COC(=O)c1ccc(Nc2c(N[C@H]3CC[C@H](Oc4ccc(C(F)(F)F)cc4)CC3)c(=O)c2=O)cc1` [Compound 58, Methyl 4-((3,4-dioxo-2-(((1,4-trans)-4-(4-(trifluoromethyl)phenoxy)cyclohexyl)amino)cyclobut-1-en-1-yl)amino)benzoate], the activity at 10 µM stood at 97%.
For the molecule `COC(=O)c1ccc(Nc2c(N[C@H]3CC[C@H](Oc4ccc(C#N)cc4)CC3)c(=O)c2=O)cc1` [Compound 59, Methyl 4-((2-(((1,4-trans)-4-(4-cyanophenoxy)cyclohexyl)amino)-3,4-dioxocyclobut-1-en-1-yl)amino)benzoate], the activity at 10 µM was determined as 83%.
With `COC(=O)c1ccc(Nc2c(N[C@H]3CC[C@H](Oc4ccc([N+](=O)[O-])cc4)CC3)c(=O)c2=O)cc1` [Compound 60, Methyl 4-((2-(((1,4-trans)-4-(4-nitrophenoxy)cyclohexyl)amino)-3,4-dioxocyclobut-1-en-1-yl)amino)benzoate], the activity at 10 µM turned out to be 97%.
Take `COC(=O)c1ccc(Nc2c(N[C@H]3CC[C@H](Oc4ccc(S(C)(=O)=O)cc4)CC3)c(=O)c2=O)cc1` [Compound 61, Methyl 4-((2-(((1,4-trans)-4-(4-(methylsulfonyl)phenoxy)cyclohexyl)amino)-3,4-dioxocyclobut-1-en-1-yl)amino)benzoate]: the activity at 10 µM turned out to be 148%.
`O=c1c(Nc2ccccc2F)c(N[C@H]2CC[C@H](Oc3ccc(C(F)(F)F)cc3)CC2)c1=O` [Compound 62, 3-((2-Fluorophenyl)amino)-4-(((1,4-trans)-4-(4-(trifluoromethyl)phenoxy)cyclohexyl)amino)cyclobut-3-ene-1,2-dione]: the activity at 10 µM came to 182%.
